Data taken from US12110276B2 (Genentech, Inc., priority 2021, dated 2024).

Columns and labels:
TEAD1 = TEAD1 (Homo sapiens (Human), UniProt P28347); test: TR-FRET lipid pocket probe competition assay (Lipid HTRF), TEAD1; format: binding; settings: 4 hours pre-incubation; read-out: Lipid HTRF TEAD1 IC50;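 further: His-tagged TEAD1 with biotinylated probe, detected via Europium anti-His and XL665 streptavidin, probe displacement lowers TR-FRET signal, IC50 from four-parameter nonlinear fit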
TEAD3 = TEAD3 (Homo sapiens (Human), UniProt Q99594); test: TR-FRET lipid pocket probe competition assay (Lipid HTRF), TEAD3; format: binding; settings: 4 hours pre-incubation; read-out: Lipid HTRF TEAD3 IC50
TEAD4 = TEAD4 (Homo sapiens (Human), UniProt Q15561); test: TR-FRET lipid pocket probe competition assay (Lipid HTRF), TEAD4; format: binding; settings: 4 hours pre-incubation; read-out: Lipid HTRF TEAD4 IC50;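 further: His-tagged TEAD4 with biotinylated lipid-pocket probe, read by Europium anti-His and XL665 streptavidin, where probe displacement lowers the TR-FRET signal, IC50 from a four-parameter fit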
TEAD2 = TEAD2 (Homo sapiens (Human), UniProt Q15562);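 further: TR-FRET competition assay with His-tagged TEAD protein and a biotinylated lipid pocket probe, compound pre-incubated 30 min or 4 h at room temperature, displacement lowers signal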
TEAD2, sequence (Q15562 whole entry, species assumed): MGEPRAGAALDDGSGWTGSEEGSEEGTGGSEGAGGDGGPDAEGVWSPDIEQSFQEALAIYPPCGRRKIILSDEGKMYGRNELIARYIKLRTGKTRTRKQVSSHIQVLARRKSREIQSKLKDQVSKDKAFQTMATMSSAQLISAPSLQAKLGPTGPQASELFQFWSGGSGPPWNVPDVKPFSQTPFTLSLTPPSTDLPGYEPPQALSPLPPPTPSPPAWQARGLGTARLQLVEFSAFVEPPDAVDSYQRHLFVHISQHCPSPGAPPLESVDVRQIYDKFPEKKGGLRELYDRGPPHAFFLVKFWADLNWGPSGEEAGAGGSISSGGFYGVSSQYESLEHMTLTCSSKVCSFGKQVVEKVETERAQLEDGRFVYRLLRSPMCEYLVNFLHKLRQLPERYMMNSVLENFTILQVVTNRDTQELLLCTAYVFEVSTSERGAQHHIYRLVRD
Protocol: His-tagged TEAD proteins are pre-incubated with TEAD project compounds for 30 minutes or 4 hours at room temperature. Biotinylated lipid pocket probes are then added to the TEAD/Compound mixture and incubated for 60 minutes at room temperature. The lipid pocket probe competes with the test compound for the TEAD lipid pocket until equilibrium is reached. After 60 minutes, Europium labelled anti-His (Perkin Elmer #AD0110) and XL665 labelled streptavidin (CIS Bio 610SAXAC) are added to the TEAD/test compound/lipid pocket mixture and incubated for 30 minutes or 4 hours. TR-FRET values are then measured using an EnVision multi-label plate reader (Perkin Elmer Cat #2104-0010A.) If the lipid pocket probe binds to TEAD as expected, a TR-FRET signal results from the proximity of anti-His Eu and XL665. If a TEAD lipid pocket binder such as binds and displaces the lipid pocket probe, the disruption of the TEAD:probe interaction results in a decrease in TR-FRET signal. The potency of compounds as TEAD lipid pocket binders is determined by IC50 value generated using a non-linear 4 parameter curve fit.

TEAD1, sequence (P28347 whole entry, species assumed): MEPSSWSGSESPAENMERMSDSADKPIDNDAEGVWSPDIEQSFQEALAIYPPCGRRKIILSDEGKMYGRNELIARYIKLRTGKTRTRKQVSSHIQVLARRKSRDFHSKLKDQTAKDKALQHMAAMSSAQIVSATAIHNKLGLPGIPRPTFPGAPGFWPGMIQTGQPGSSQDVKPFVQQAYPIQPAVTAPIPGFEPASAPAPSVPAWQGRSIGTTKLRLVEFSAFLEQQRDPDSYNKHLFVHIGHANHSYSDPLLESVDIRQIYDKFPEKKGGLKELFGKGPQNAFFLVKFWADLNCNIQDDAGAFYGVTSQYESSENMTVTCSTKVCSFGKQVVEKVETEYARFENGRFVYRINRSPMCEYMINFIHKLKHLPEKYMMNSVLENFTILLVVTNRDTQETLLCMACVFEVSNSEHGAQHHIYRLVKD
TEAD4, sequence (Q15561 whole entry, species assumed): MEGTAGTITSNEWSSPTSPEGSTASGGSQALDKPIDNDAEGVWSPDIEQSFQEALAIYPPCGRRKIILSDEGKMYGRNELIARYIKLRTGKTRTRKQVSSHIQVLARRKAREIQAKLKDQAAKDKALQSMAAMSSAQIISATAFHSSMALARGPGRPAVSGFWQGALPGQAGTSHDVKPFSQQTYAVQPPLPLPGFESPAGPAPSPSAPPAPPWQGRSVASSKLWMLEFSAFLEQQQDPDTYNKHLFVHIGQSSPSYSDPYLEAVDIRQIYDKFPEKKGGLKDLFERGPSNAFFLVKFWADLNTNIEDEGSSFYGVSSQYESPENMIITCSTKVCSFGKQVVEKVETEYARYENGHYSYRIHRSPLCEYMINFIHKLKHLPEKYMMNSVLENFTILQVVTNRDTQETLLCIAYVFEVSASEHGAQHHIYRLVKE
TEAD3, sequence (Q99594 whole entry, species assumed): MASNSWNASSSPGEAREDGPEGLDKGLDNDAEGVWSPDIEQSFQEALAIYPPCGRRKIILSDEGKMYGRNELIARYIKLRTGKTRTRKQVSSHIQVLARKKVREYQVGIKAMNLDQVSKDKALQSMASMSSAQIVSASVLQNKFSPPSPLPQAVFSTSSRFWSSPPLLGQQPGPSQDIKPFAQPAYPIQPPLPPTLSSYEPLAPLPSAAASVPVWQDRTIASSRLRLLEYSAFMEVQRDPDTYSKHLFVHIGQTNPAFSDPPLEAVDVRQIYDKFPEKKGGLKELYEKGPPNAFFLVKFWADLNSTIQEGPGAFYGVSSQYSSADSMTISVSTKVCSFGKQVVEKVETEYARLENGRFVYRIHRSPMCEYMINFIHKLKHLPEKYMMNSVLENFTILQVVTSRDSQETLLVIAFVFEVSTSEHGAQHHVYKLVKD

Compound	IC50 (TEAD1)	IC50 (TEAD3)	IC50 (TEAD4)	IC50 (TEAD2)
C=C(F)C(=O)N1CC(c2nn(-c3ccc(OC(F)(F)F)cc3)c3nccc(N4CC(F)(C(N)=O)C4)c23)C1 [Compound 57, 3-Fluoro-1-(3-(1-(2-fluoroacryloyl)azetidin-3-yl)-1-(4-(trifluoromethoxy)phenyl)-1H-pyrazolo[3,4-b]pyridin-4-yl)azetidine-3-carboxamide]	36 nM	350 nM	5.1 nM	37 nM
C=C(F)C(=O)N1CC(c2nn(-c3ccc(OC(F)(F)F)cc3)c3nccc(N4CC([C@@H](O)CO)C4)c23)C1 [Compound 58, (R)-1-(3-(4-(3-(1,2-Dihydroxyethyl)azetidin-1-yl)-1-(4-(trifluoromethoxy)phenyl)-1H-pyrazolo[3,4-b]pyridin-3-yl)azetidin-1-yl)-2-fluoroprop-2-en-1-one]	38 nM	50000 nM	9.6 nM	70 nM
C=C(F)C(=O)N1CC(c2nn(-c3ccc(OC(F)(F)F)cc3)c3nccc(-n4ccnc4)c23)C1 [Compound 64, 1-(3-(4-(1H-Imidazol-1-yl)-1-(4-(trifluoromethoxy)phenyl)-1H-pyrazolo[3,4-b]pyridin-3-yl)azetidin-1-yl)-2-fluoroprop-2-en-1-one]	23 nM	1300 nM	21 nM	170 nM
C[C@@H](O)/C=C/C(=O)N1CC(c2nn(-c3ccc(OC(F)(F)F)cc3)c3nccc(CO)c23)C1 [Compound 66, (R,E)-4-Hydroxy-1-(3-(4-(hydroxymethyl)-1-(4-(trifluoromethoxy)phenyl)-1H-pyrazolo[3,4-b]pyridin-3-yl)azetidin-1-yl)pent-2-en-1-one]	44 nM	340 nM	33 nM	180 nM
C=CC(=O)NCc1nn(-c2ccc(OC(F)(F)F)cc2)c2nccc(O[C@H]3C[C@H](O)C3)c12 [Compound 67, N-((4-(trans-3-Hydroxycyclobutoxy)-1-(4-(trifluoromethoxy)phenyl)-1H-pyrazolo[3,4-b]pyridin-3-yl)methyl)acrylamide]	100 nM	50000 nM	31 nM	365 nM
O=C(/C=C/CO)N1CC(c2nn(-c3ccc(OC(F)(F)F)cc3)c3nccc(N4CC(O)C4)c23)C1 [Compound 70, (E)-4-Hydroxy-1-(3-(4-(3-hydroxyazetidin-1-yl)-1-(4-(trifluoromethoxy)phenyl)-1H-pyrazolo[3,4-b]pyridin-3-yl)azetidin-1-yl)but-2-en-1-one]	17 nM	140 nM	3.6 nM	37 nM
CC#CC(=O)N1CC(c2nn(-c3ccc(OC(F)(F)F)cc3)c3nccc([C@@H](O)CO)c23)C1 [Compound 71, (R)-1-(3-(4-(1,2-dihydroxyethyl)-1-(4-(trifluoromethoxy)phenyl)-1H-pyrazolo[3,4-b]pyridin-3-yl)azetidin-1-yl)but-2-yn-1-one]	32 nM	43 nM	16 nM	5.3 nM
C=C(F)C(=O)N1CC(c2nn(-c3ccc(OC(F)(F)F)cc3)c3nccc(N4CC(O)(CO)C4)c23)C1 [Compound 75, 2-Fluoro-1-(3-(4-(3-hydroxy-3-(hydroxymethyl)azetidin-1-yl)-1-(4-(trifluoromethoxy)phenyl)-1H-pyrazolo[3,4-b]pyridin-3-yl)azetidin-1-yl)prop-2-en-1-one]	45 nM	1100 nM	5.2 nM	19 nM
C=C(F)C(=O)N1CC(c2nn(-c3ccc(OC(F)(F)F)cc3)c3ccnc(N4CC(O)C4)c23)C1 [Compound 78, 2-fluoro-1-(3-(4-(3-hydroxyazetidin-1-yl)-1-(4-(trifluoromethoxy)phenyl)-1H-pyrazolo[4,3-c]pyridin-3-yl)azetidin-1-yl)prop-2-en-1-one]	180 nM	13000 nM	150 nM	2800 nM
N#Cc1ccnc2c1c(C1CN(C(=O)/C=C/CO)C1)nn2-c1ccc(OC(F)(F)F)cc1 [Compound 79]	19 nM	20 nM	6.8 nM	60 nM
C=C(F)C(=O)N1CC(c2nn(-c3ccc(OC(F)(F)F)cc3)c3nccc(C#N)c23)C1 [Compound 80, 3-(1-(2-fluoroacryloyl)azetidin-3-yl)-1-(4-(trifluoromethoxy)phenyl)-1H-pyrazolo[3,4-b]pyridine-4-carbonitrile]	18 nM	29 nM	16 nM	68 nM
C=C(F)C(=O)N1CC(c2nn(-c3ccc(OC(F)(F)F)cc3)c3nccc(N4CC(O)C4)c23)C1 [Compound 81, 2-Fluoro-1-(3-(4-(3-hydroxyazetidin-1-yl)-1-(4-(trifluoromethoxy)phenyl)-1H-pyrazolo[3,4-b]pyridin-3-yl)azetidin-1-yl)prop-2-en-1-one]	32 nM	240 nM	11 nM	24 nM
C=C(F)C(=O)N1CC(c2nn(-c3ccc(OC(F)(F)F)cc3)c3nccc(N4CC[C@H](O)C4=O)c23)C1 [Compound 82, (S)-1-(3-(1-(2-fluoroacryloyl)azetidin-3-yl)-1-(4-(trifluoromethoxy)phenyl)-1H-pyrazolo[3,4-b]pyridin-4-yl)-3-hydroxypyrrolidin-2-one]	31 nM	270 nM	4.8 nM	390 nM
C=CC(=O)NCc1nn(-c2ccc(S(F)(F)(F)(F)F)cc2)c2nccc(CO)c12 [Compound 87, N-((4-(Hydroxymethyl)-1-(4-(pentafluoro-λ^6-sulfanyl)phenyl)-1H-pyrazolo[3,4-b]pyridin-3-yl)methyl)acrylamide]	23 nM	520 nM	33 nM	190 nM

Now from value to compound:

IC50 (TEAD1)	IC50 (TEAD3)	IC50 (TEAD4)	IC50 (TEAD2)	Compound
14 nM	3500 nM	3.4 nM	45 nM	C=CC(=O)NCc1nn(-c2ccc(OC(F)(F)F)cc2)c2nccc(N3CC(C#N)C3)c12 [Compound 52, N-((4-(3-Cyanoazetidin-1-yl)-1-(4-(trifluoromethoxy)phenyl)-1H-pyrazolo[3,4-b]pyridin-3-yl)methyl)acrylamide]
45 nM	50000 nM	3.5 nM	36 nM	O=C(/C=C\Cl)NCc1nn(-c2ccc(OC(F)(F)F)cc2)c2nccc([C@H](O)CO)c12 [Compound 53, (S,Z)-3-chloro-N-((4-(1,2-dihydroxyethyl)-1-(4-(trifluoromethoxy)phenyl)-1H-pyrazolo[3,4-b]pyridin-3-yl)methyl)acrylamide]
490 nM	10000 nM	860 nM	730 nM	C=CC(=O)NCc1nn(-c2ccc(OC(F)(F)F)cc2)c2nccc(CN3CC(O)C3)c12 [Compound 54, N-((4-((3-Hydroxyazetidin-1-yl)methyl)-1-(4-(trifluoromethoxy)phenyl)-1H-pyrazolo[3,4-b]pyridin-3-yl)methyl)acrylamide]
17 nM	160 nM	12 nM	120 nM	C=CC(=O)N(C)Cc1nn(-c2ccc(OC(F)(F)F)cc2)c2nccc(CO)c12 [Compound 55, N-((4-(Hydroxymethyl)-1-(4-(trifluoromethoxy)phenyl)-1H-pyrazolo[3,4-b]pyridin-3-yl)methyl)-N-methylacrylamide]
39 nM	50000 nM	11 nM	85 nM	C=CC(=O)NCc1nn(-c2ccc(OC(F)(F)F)cc2)c2nccc([C@H]3C[C@H](O)C3)c12 [Compound 56, N-((4-(trans-3-hydroxycyclobutyl)-1-(4-(trifluoromethoxy)phenyl)-1H-pyrazolo[3,4-b]pyridin-3-yl)methyl)acrylamide]
58 nM	860 nM	13 nM	71 nM	C=CC(=O)NCc1nn(-c2ccc(OC(F)(F)F)cc2)c2nccc([C@@H](C)O)c12 [Compound 62, (R)-N-((4-(1-Hydroxyethyl)-1-(4-(trifluoromethoxy)phenyl)-1H-pyrazolo[3,4-b]pyridin-3-yl)methyl)acrylamide]
135 nM	10500 nM	78.5 nM	124 nM	C=CC(=O)NCc1nn(-c2ccc(OC(F)(F)F)cc2)c2nccc([C@H](C)O)c12 [Compound 63, (S)-N-((4-(1-hydroxyethyl)-1-(4-(trifluoromethoxy)phenyl)-1H-pyrazolo[3,4-b]pyridin-3-yl)methyl)acrylamide]
71 nM	980 nM	140 nM	550 nM	C=C(F)C(=O)NCc1nn(-c2ccc(OC(F)(F)F)cc2)c2nccc(CO)c12 [Compound 68, 2-Fluoro-N-((4-(hydroxymethyl)-1-(4-(trifluoromethoxy)phenyl)-1H-pyrazolo[3,4-b]pyridin-3-yl)methyl)acrylamide]
32 nM	4100 nM	4.8 nM	140 nM	C=CC(=O)NCc1nn(-c2ccc(OC(F)(F)F)cc2)c2nccc(N3CC(C)(O)C3)c12 [Compound 74, N-((4-(3-hydroxy-3-methylazetidin-1-yl)-1-(4-(trifluoromethoxy)phenyl)-1H-pyrazolo[3,4-b]pyridin-3-yl)methyl)acrylamide]
23 nM	50000 nM	6.3 nM	89 nM	C=CC(=O)NCc1nn(-c2ccc(OC(F)(F)F)cc2)c2nccc(N3CC(F)C3)c12 [Compound 84, N-((4-(3-Fluoroazetidin-1-yl)-1-(4-(trifluoromethoxy)phenyl)-1H-pyrazolo[3,4-b]pyridin-3-yl)methyl)acrylamide]
140 nM	15000 nM	170 nM	480 nM	C=CC(=O)NCc1nn(-c2ccc(OC(F)(F)F)cc2)c2nccc(N[C@H]3C[C@H](O)C3)c12 [Compound 85, N-((4-((3-hydroxycyclobutyl)amino)-1-(4-(trifluoromethoxy)phenyl)-1H-pyrazolo[3,4-b]pyridin-3-yl)methyl)acrylamide]
